Columns and labels:
Type in all cases: in vivo, C57BL/6 mice
[1] = tested on: mice with tumors induced by Lewis lung carcinoma (LLC) cells; assay: Grip strength test, LLC tumor-bearing mice; settings: grip strength on day 12 of oral treatment, extract 100 mg/kg, Megace 125 mg/kg, mean ± standard deviation
Experimental: (§1) The mice were divided into a normal group (healthy group), a control group (tumor-induced group), a conventional drug-administered group and a Paeoniae radix extract-administered group, each group consisting of 9 animals. Each animal of the normal group was injected subcutaneously with 100 μl of PBS, and the tumor-induced group (control group), the conventional drug-administered group and the Paeoniae radix extract-administered group were injected subcutaneously with MC38 colorectal cancer cells (1×10^6 cells/100 μl) or Lewis lung carcinoma (LLC) cells (1×10^6 cells/100 μl). […] During the experiment, the food uptake of each mouse was recorded. In addition, the muscle strength of each mouse was measured with a grip strength test device (Bioseb, USA), and the endurance of each mouse was measured under the condition of maximum exercise time of 600 seconds using a treadmill device (Columbus Instrument, USA).
(§2) On day 12th day of the oral treatment of conventional drug or the Paeoniae radix extract to the tumor-induced mice, the muscle strength and endurance of the mice were measured by a grip strength (g) test and a treadmill running time (sec) test, respectively.

TNF-α, IL-6, MCP-1 = assay: Serum and muscle inflammatory cytokine ELISA, LLC tumor-bearing mice; settings: oral 14 days, extract 100 mg/kg, Megace 125 mg/kg, mean ± standard deviation
Experimental: The mice were divided into a normal group (healthy group), a control group (tumor-induced group), a conventional drug-administered group and a Paeoniae radix extract-administered group, each group consisting of 9 animals. Each animal of the normal group was injected subcutaneously with 100 μl of PBS, and the tumor-induced group (control group), the conventional drug-administered group and the Paeoniae radix extract-administered group were injected subcutaneously with MC38 colorectal cancer cells (1×10^6 cells/100 μl) or Lewis lung carcinoma (LLC) cells (1×10^6 cells/100 μl). When the tumor volume reached about 1,000 mm^3 after 2 weeks of tumor induction, the cancer cachexia treatment agent Megace (megestrol acetate), which is most frequently used in current clinical practice, was administered orally to the conventional drug-administered group. Dose of Megace was 125 mg/kg (=625 mg [daily human dose]/60 kg [human's average body weight]×12 [human/mouse body surface area dose equivalent factor]) for 14 days. Paeoniae radix extract prepared in Example 1 was administered orally to the Paeoniae radix extract-administered group for 14 days at a dose of 100 mg/kg, which is slightly lower than the dose of Megace. During the experiment, the food uptake of each mouse was recorded. In addition, the muscle strength of each mouse was measured with a grip strength test device (Bioseb, USA), and the endurance of each mouse was measured under the condition of maximum exercise time of 600 seconds using a treadmill device (Columbus Instrument, USA).
After completion of the experiment, the mice were euthanized, blood was collected therefrom, and then the tumor weight and the hind limb muscle weight were measured, and the serum and muscle concentrations of TNF-α, IL-6, IL-1 and MCP-1 were quantified by ELISA assay. In addition, the effect of the Paeoniae radix extract on the reduction of muscle atrophy factor (MAFbx) in the hind limb muscle of each LCC cancer-bearing mouse was measured using Western blot and immunofluorescence known in the art.
After the Paeoniae radix extract was administered orally to the mice for 14 days after tumor induction, the mice were euthanized and the serum and muscle concentrations of inflammatory cytokines were measured. As a result, as shown in Table 4 below and FIGS. 2 and 8, the concentrations of tumor-induced inflammatory cytokines increased in the control group (tumor-induced group) compared to the normal (healthy) group.

[2] = tested on: mice with tumors induced by MC38 colorectal cancer cells; assay: Grip strength test, MC38 tumor-bearing mice; settings: grip strength on day 12 of oral treatment, extract 100 mg/kg, Megace 125 mg/kg, mean ± standard deviation
Experimental: as §1, §2

[3] = tested on: mice with tumors induced by Lewis lung carcinoma (LLC) cells; assay: Treadmill running time test, LLC tumor-bearing mice; settings: maximum 600 seconds, day 12 of oral treatment, extract 100 mg/kg, Megace 125 mg/kg, mean ± standard deviation
Experimental: as §1, §2

[4] = tested on: MC38 colorectal cancer cells; assay: Tumor weight, MC38 tumor-bearing mice; settings: oral 14 days, extract 100 mg/kg, Megace 125 mg/kg, mean ± standard deviation
Experimental: as §1
(§3) After completion of the experiment, the mice were euthanized, blood was collected therefrom, and then the tumor weight and the hind limb muscle weight were measured, and the serum and muscle concentrations of TNF-α, IL-6, IL-1 and MCP-1 were quantified by ELISA assay. […]
(§4) After the Paeoniae radix extract was administered orally to the mice for 14 days after tumor induction, the mice were euthanized and the tumor weight was measured. […]

[5] = tested on: Lewis lung carcinoma (LLC) cells; assay: Tumor weight, LLC tumor-bearing mice; settings: oral 14 days, extract 100 mg/kg, Megace 125 mg/kg, mean ± standard deviation
Experimental: as §1, §3, §4

[6] = tested on: mice with tumors induced by Lewis lung carcinoma (LLC) cells; assay: Food intake and body weight of LLC tumor-bearing mice; settings: oral 14 days, extract 100 mg/kg, Megace 125 mg/kg, mean ± standard deviation
Experimental: (§5) As experimental animals, 4-week-old male C57BL/6 mice (weighed 18 to 20 g) were purchased from Central Lab Animal Inc., acclimated in a laboratory animal facility for 1 week, and then used in the experiment. During the experiment, the animals were allowed to access feed and water ad libitum, and housed at cages at a temperature of 22±2° C. and a relative humidity of 60±5% under a 12-hr light/12-hr dark cycle.
(§6) The mice were divided into a normal group (healthy group), a control group (tumor-induced group), a conventional drug-administered group and a Paeoniae radix extract-administered group, each group consisting of 9 animals. […] During the experiment, the food uptake of each mouse was recorded. In addition, the muscle strength of each mouse was measured with a grip strength test device (Bioseb, USA), and the endurance of each mouse was measured under the condition of maximum exercise time of 600 seconds using a treadmill device (Columbus Instrument, USA).
(§7) While the Paeoniae radix extract was administered orally to the mice for 14 days after tumor induction, the food intake of the mice was recorded. […]

IL-6 = assay: Serum and muscle inflammatory cytokine ELISA, MC38 tumor-bearing mice; settings: oral 14 days, extract 100 mg/kg, Megace 125 mg/kg, mean ± standard deviation
Experimental: as §1, §3
After the Paeoniae radix extract was administered orally to the mice for 14 days after tumor induction, the mice were euthanized and the serum and muscle concentrations of inflammatory cytokines were measured. […]

[7] = tested on: mice with tumors induced by MC38 colorectal cancer cells; assay: Food intake of MC38 tumor-bearing mice; settings: oral 14 days, extract 100 mg/kg, Megace 125 mg/kg, mean ± standard deviation
Experimental: as §5, §6, §7

[8] = tested on: mice with tumors induced by MC38 colorectal cancer cells; assay: Treadmill running time test, MC38 tumor-bearing mice; settings: maximum 600 seconds, day 12 of oral treatment, extract 100 mg/kg, Megace 125 mg/kg, mean ± standard deviation
Experimental: as §1, §2

For `CC(=O)O[C@]1(C(C)=O)CC[C@H]2[C@@H]3C=C(C)C4=CC(=O)CC[C@]4(C)[C@H]3CC[C@@]21C` [Conventional drug, megestrol acetate], the Muscle strength [1] was 154.883 ± 17.238 g, the “Cytokine concentration, Muscle TNF-α” value (TNF-α, IL-6, MCP-1) was 21.910 ± 5.414 pg/mL and the “Cytokine concentration, Serum IL-6” value (TNF-α, IL-6, MCP-1) was 15.616 ± 8.902 pg/mL. The “Cytokine concentration, Serum MCP-1” value (TNF-α, IL-6, MCP-1) was 431.670 ± 191.640 pg/mL, the “Cytokine concentration, Serum TNF-α” value (TNF-α, IL-6, MCP-1) was 3.302 ± 0.422 pg/mL and the Muscle strength [2] was 172.065 ± 28.210 g. For the same molecule, the Endurance [3] was 338.333 ± 157.322 s, the Tumor weight [4] was 11.747 ± 3.073 g and the Tumor weight [5] was 7.797 ± 2.385 g. For the same molecule, the Food intake [6] was 2.891 ± 0.417 g, the “Cytokine concentration, Muscle IL-6” value (IL-6) was 156.167 ± 29.486 pg/mL and the “Cytokine concentration, Serum IL-6” value (IL-6) was 49.222 ± 22.762 pg/mL. For the same molecule, the Food intake [7] was 2.607 ± 0.357 g and the Endurance [8] was 177.400 ± 60.844 s.
